Test results taken from patent publication EP0463492A1, “2,6-Diarylpyridin derivatives” (BAYER AG, priority 1990, dated 1992).

Tested on: Testpflanzen
Test: Post-emergence test (greenhouse)
Format: in vivo
Conditions: post-emergence spray on test plants 5 - 15 cm high, 1000 l Wasser/ha; rated after three weeks as % Schädigung versus untreated control (0 % = keine Wirkung, 100 % = totale Vernichtung); application rates and plant species not given
From the text: Post-emergence-Test (Gewächshaus) • Lösungsmittel: 5 Gewichtsteile Aceton • Emulgator: 1 Gewichtsteil Alkylarylpolyglykolether
Zur Herstellung einer zweckmäßigen Wirkstoffzubereitung vermischt man 1 Gewichtsteil Wirkstoff mit den angegebenen Menge Lösungsmittel, gibt die angegebene Menge Emulgator zu und verdünnt das Konzentrat mit Wasser auf die gewünschte Konzentration.
Mit der Wirkstoffzubereitung spritzt man Testpflanzen, welche eine Höhe von 5 - 15 cm haben so, daß die jeweils gewünschten Wirkstoffmengen pro Flächeneinheit ausgebracht werden. Die Konzentration der Spritzbrühe wird so gewählt, daß in 1000 I Wasser/ha die jeweils gewünschten Wirkstoffmengen ausgebracht werden. Nach drei Wochen wird der Schädigungsgrad der Pflanzen bonitiert in % Schädigung im Vergleich zur Entwicklung der unbehandelten Kontrolle.
Es bedeuten: • 0 % = keine Wirkung (wie unbehandelte Kontrolle) • 100 % = totale Vernichtung

With `CCOc1cc(-c2ccccc2)nc(-c2cccc(CC)c2)c1` [Beispiel 2, 4-Ethoxy-2-(3-ethylphenyl)-6-phenyl-pyridin] the “Wirksamkeit und Nutzpflanzenselektivität” value was “sehr gute Wirksamkeit und Nutzpflanzenselektivität”.
